According to the supplement of paper PMC10307832:

Columns and labels:
Assay in all cases: relative viability (nuclei count vs DMSO), 5 days (fraction); higher = more cells survive
[1] = compound: C1/C(=C\C2=CC=CS2)/C(=O)/C(=C/C3=CC=CS3)/C1 + CS(=O)(=O)N1CCN(Cc2cc3nc(-c4cccc5[nH]ncc45)nc(N4CCOCC4)c3s2)CC1 [Pictilisib] (partner 1 µM)
Outline: (§1)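 Relative viability equals treated-well nuclei counts divided by vehicle-well nuclei counts. Counts came from 4× images of lung cancer cell lines grown in 1536-well plates for 5 days after pin-tool dosing on the day after seeding. Dosing used one drug alone or a fixed anchor-drug dose plus five library-drug doses (not always all listed) in √10 steps, and values are medians of duplicate plates.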

[2] = compound: C[C@]12O[C@H](C[C@]1(O)CO)n1c3ccccc3c3c4c(c5c6ccccc6n2c5c31)CNC4=O [Lestaurtinib] + CC(=O)Nc1cccc(-n2c(=O)n(C3CC3)c(=O)c3c(Nc4ccc(I)cc4F)n(C)c(=O)c(C)c32)c1 [Trametinib] (partner 0.02 µM)
Outline: as §1

[3] = compound: C[C@]12O[C@H](C[C@]1(O)CO)n1c3ccccc3c3c4c(c5c6ccccc6n2c5c31)CNC4=O [Lestaurtinib] + CC(=O)c1c(C)c2cnc(Nc3ccc(N4CCNCC4)cn3)nc2n(C2CCCC2)c1=O [Palbociclib] (partner 0.5 µM)
Outline: as §1

Lestaurtinib + AZD7762 = compound: C[C@]12O[C@H](C[C@]1(O)CO)n1c3ccccc3c3c4c(c5c6ccccc6n2c5c31)CNC4=O [Lestaurtinib] + NC(=O)Nc1cc(-c2cccc(F)c2)sc1C(=O)N[C@H]1CCCNC1 [AZD7762] (partner 0.2 µM)
Outline: as §1

Cell Line	relative viability ([1]; first compound 0.2 µM)	relative viability ([1]; first compound 0.6325 µM)	relative viability ([1]; first compound 2 µM)	relative viability ([1]; first compound 6.325 µM)	relative viability ([1]; first compound 20 µM)	relative viability ([2]; first compound 0.01581 µM)	relative viability ([2]; first compound 0.05 µM)	relative viability ([2]; first compound 0.1581 µM)	relative viability ([2]; first compound 0.5 µM)	relative viability ([3]; first compound 0.01581 µM)	relative viability ([3]; first compound 0.05 µM)	relative viability ([3]; first compound 0.1581 µM)	relative viability ([3]; first compound 0.5 µM)	relative viability (Lestaurtinib + AZD7762; first compound 0.005 µM)	relative viability (Lestaurtinib + AZD7762; first compound 0.01581 µM)	relative viability (Lestaurtinib + AZD7762; first compound 0.05 µM)	relative viability (Lestaurtinib + AZD7762; first compound 0.1581 µM)	relative viability (Lestaurtinib + AZD7762; first compound 0.5 µM)	relative viability ([2]; first compound 0.005 µM)	relative viability ([3]; first compound 0.005 µM)
LCLC-97TM1	0.209	0.28	0.198	0.235	0.159	0.196	0.199	0.157	0.226	0.243	0.133	0.134	0.194	0.167	0.279	0.166	0.175	0.114	–	–
LCLC-103H	0.573	0.57	0.757	0.483	0.551	0.741	0.609	0.592	0.678	0.506	0.497	0.474	0.51	0.924	0.785	0.635	0.633	0.452	0.717	0.524
LK-2	0.521	0.635	0.487	0.491	0.561	0.941	0.718	0.65	0.293	0.833	0.756	0.53	0.307	0.388	0.523	0.272	0.276	0.135	0.778	0.705
LOU-NH91	0.522	0.502	0.508	0.524	0.481	0.749	0.679	0.625	0.548	0.524	0.586	0.558	0.522	0.688	0.754	0.573	0.524	0.378	0.759	0.567
LU99A	0.345	0.403	0.303	0.276	0.353	0.522	0.439	0.231	0.145	0.392	0.285	0.271	0.185	0.362	0.348	0.34	0.277	0.158	0.55	0.371
LXF-289	0.814	0.772	0.821	0.699	0.797	0.691	0.494	0.467	0.159	0.633	0.443	0.49	0.234	1.12	1.14	0.801	0.864	0.17	0.66	0.624
NCI-H23	0.557	0.495	0.535	0.551	0.542	0.455	0.35	0.408	0.225	0.624	0.527	0.5	0.274	0.213	0.257	0.227	0.246	0.203	0.377	0.578
NCI-H322M	0.541	0.526	0.654	0.538	0.522	0.567	–	0.512	0.672	0.497	–	0.515	0.519	0.511	0.538	–	0.517	0.479	0.507	0.473
